The source of these data is PubChem BioAssay AID1645865 (Buhrlage Lab, Dana-Farber Cancer Institute and Novartis …, 2021).

Calls of active or inactive are those of the source.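 How the source made its calls: active means maximal inhibition of the USP30 enzyme reaching 30% or more across the dose series; inactive means the rest.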

For this experiment, the target named is Ubiquitin carboxyl-terminal hydrolase 30 (Homo sapiens) (UniProt Q70CQ3). Nature of the experiment: inhibitors of ubiquitin-specific protease 30 deubiquitylating enzyme, concentration dependence, in vitro biochemical, validation of primary hits (AID 1645865). The following applies: purified USP30, Ub-rhodamine cleavage, fluorescence, 2 h.
Ubiquitin carboxyl-terminal hydrolase 30 (Homo sapiens), sequence (Q70CQ3 whole entry, looked up): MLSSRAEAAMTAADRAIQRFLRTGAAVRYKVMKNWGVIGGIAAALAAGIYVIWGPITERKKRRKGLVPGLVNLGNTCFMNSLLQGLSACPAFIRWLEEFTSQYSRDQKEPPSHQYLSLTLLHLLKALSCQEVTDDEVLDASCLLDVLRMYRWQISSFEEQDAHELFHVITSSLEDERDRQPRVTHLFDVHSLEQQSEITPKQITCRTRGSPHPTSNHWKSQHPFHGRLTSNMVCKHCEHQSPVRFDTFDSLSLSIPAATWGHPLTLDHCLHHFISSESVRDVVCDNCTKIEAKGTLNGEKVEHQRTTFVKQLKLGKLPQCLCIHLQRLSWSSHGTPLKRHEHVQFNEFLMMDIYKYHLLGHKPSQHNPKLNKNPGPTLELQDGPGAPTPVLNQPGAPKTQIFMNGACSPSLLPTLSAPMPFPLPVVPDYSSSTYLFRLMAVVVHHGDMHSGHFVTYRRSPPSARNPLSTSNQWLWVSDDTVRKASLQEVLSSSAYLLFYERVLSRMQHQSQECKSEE
For the molecule `CCOc1ccc(-n2c(C)cc(/C=C(\C#N)c3nc4ccccc4[nH]3)c2C)cc1`, the IC50 – broadly, the concentration at which inhibition is half-maximal – is > 50 µM (inactive).
Turning to `CC(=O)c1sc(NC(=O)/C=C/c2ccccc2)nc1-c1ccccc1`, the half-inhibitory concentration (IC50) is 18 µM.
Then `COC1C(O)=C2C(=O)O/C(C)=C/C=C/C=C/C=C/CC(c3ccccc3)NC(=O)/C=C/C=C/C=C\C=C\C2(C)C1O` (configuration not stated), with > 50 µM (inactive).
Then `CN(C)S(=O)(=O)c1ccc(C(=O)Nc2c(C#N)oc3ccccc23)cc1`, with > 50 µM (inactive); and `COc1ccc(C)cc1NC(=O)C(NS(=O)(=O)c1ccc2c(c1)CCN2C(C)=O)C(C)C` (configuration not stated), with > 50 µM (inactive); and `O=C(NC1CCN(c2nc(-c3cccnc3)nc3ccccc23)CC1)c1cccnc1`, with > 50 µM (inactive).
Turning to `CCn1c(CN2CCCC(c3nc(-c4cccnc4)n[nH]3)C2)nc2ccccc21` (configuration not stated), the IC50 is > 50 µM (inactive).
`CC1=C(c2ccc(F)cc2)S(=O)(=O)NC1=NCC(=O)Nc1ccc(F)cc1F`: the IC50 was 23.4 µM.
Then `COC(=O)C1C(c2ccc(Cl)cc2Cl)C2(C(=O)c3ccccc3C2=O)C2C=Cc3ccccc3N12` (configuration not stated), with > 50 µM (inactive); and `Cn1c(CN2CCCCCC2)nc2cc(NC(=O)c3ccccc3)ccc21`, with > 50 µM (inactive); and `COc1ccc(OCCn2c(C3CC(=O)N(c4cccc(C)c4)C3)nc3ccccc32)cc1` (configuration not stated), with 0.356 µM.
Turning to `CCN(C(=O)c1cc2c(s1)-c1ccccc1OC2)c1ccccc1F`, the IC50 was > 50 µM (inactive).
For the molecule `CCC(C)Oc1cccc(C(=O)Nc2ccc(CN3CCOCC3)cc2)c1` (configuration not stated), the IC50 was > 50 µM (inactive).
Then `O=C(Cc1cccc2ccccc12)Nc1nc2ccc(F)cc2s1`, with 45.4 µM; and `Cc1sc2nc(CN3CCCC3)nc(NCCc3ccc(Cl)cc3)c2c1C`, with > 50 µM (inactive); and `O=C1c2c(O)cccc2C2(Oc3cccc4cccc(c34)O2)C2OC12` (configuration not stated), with 31.8 µM.
Then `O=C(Nc1nc2ccccc2s1)c1ccc2c(c1)C(=O)N(Cc1cccnc1)C2=O`, with 2.19 µM; and `COc1ccccc1NC(=O)CNC(=O)c1nn(-c2ccc(OC)c(OC)c2)c(=O)c2ccccc12`, with 35.6 µM.
Then `COc1ccccc1NC(=O)c1cc2c(C)nn(Cc3ccccc3)c2s1`, with 28.9 µM; and `Cc1ccc(C(=O)NCCc2nc(-c3ccc4c(c3)OCO4)n[nH]2)cc1F`, with 41.6 µM.
For `COc1ccc(/C=C/C(=O)N2CCc3ccccc32)cc1S(=O)(=O)N1CCOCC1`, the IC50 is > 50 µM (inactive).
Then `COc1ccc(C(=O)NCCc2nnc3ccc(SCC(=O)NCc4ccc(F)cc4)nn23)cc1`, with 15.8 µM.
Then `Cc1ccc(-c2noc(-c3nnc(SCC(=O)NC4CCCC4)n3C)n2)cc1`, with 2.22 µM; and `CN1C(=O)COc2cc(-c3noc(C(=O)NC4CCCCCC4)n3)ccc21`, with 24.7 µM; and `CCC(=O)Nc1nc2cc(NC(=O)Nc3cc(C)cc(C)c3)ccc2s1`, with 1.65 µM.
In the case of `O=C(Cn1cccc1-c1nc(-c2ccccc2)cs1)N1CCOCC1`, the IC50 is 20.6 µM.
For `COc1ccc(Cl)c(NC(=O)C2CC(=O)Nc3cc(-c4ccccc4)nn32)c1` (configuration not stated), the IC50 is 13.2 µM.
Then `O=C(COC(=O)c1ccc(CN2CCCC2=O)cc1)c1ccc2c(c1)OCCO2`, with > 50 µM (inactive); and `COc1cccc(-c2cc(C(=O)Nc3cc(C)n(Cc4ccc(Cl)cc4)n3)no2)c1`, with 4.38 µM; and `Cc1ccc(C(=O)Nc2cc3c4c(c2)CC(=O)N4CCC3)cc1`, with > 50 µM (inactive).
Then `Cc1sc2ccn(C)c(=O)c2c1C(=O)NC1CCCC1`, with 25.9 µM; and `O=C1CC(C(=O)Nc2ccccc2Cl)n2nc(-c3ccccc3)cc2N1` (configuration not stated), with 20.1 µM; and `COc1ccc(CCNC(=O)CSc2cn(CCNC(=O)c3ccc(F)cc3)c3ccccc23)cc1OC`, with 19.9 µM.
On to `Cc1ccc(Nc2nc(Nc3cccc(Cl)c3)nc3nccnc23)cc1`, for which the IC50 is > 50 µM (inactive).
Take `COc1ccc(-c2cc(-c3ccc(O)cc3)nc(N)c2C#N)cc1OC`: the IC50 is > 50 µM (inactive).
For `O=C(COc1ccc2c(-c3ccccc3)cc(=O)oc2c1)Nc1cccnc1`, the IC50 was 1.3 µM.
With `CC(=O)Nc1ccc(-n2cnc(C(=O)NC(C)c3ccccc3)c2)nc1` (configuration not stated), the IC50 is 25.8 µM.
In the case of `Cc1cc(C(=O)COC(=O)c2ccc[nH]c2=O)c(C)n1-c1ccc2c(c1)OCO2`, the IC50 was > 50 µM (inactive).
Then `COc1cc(NC(=O)Cn2c(=O)n(-c3ccc(CC(=O)NC4CCCC4)cc3)c(=O)c3ccccc32)cc(OC)c1`, with > 50 µM (inactive); and `CC(=O)c1ccc(NC(=O)CSc2nc(-c3ccccc3)nc3c2COC(C)(C)C3)cc1`, with 2.77 µM; and `COc1ccc(Nc2nc(C(=O)NCc3ccccc3)cc3occc23)cc1`, with > 50 µM (inactive).
Turning to `COc1ccc(C(=O)Nc2nc3n(n2)C(c2ccccc2)CC(=O)N3)cc1` (configuration not stated), the half-inhibitory concentration (IC50) is 10.7 µM.
Then `CCC(=O)Nc1ccc2c(c1)nc(CSc1nccc(C)n1)n2CC`, with > 50 µM (inactive).
Turning to `Cc1cc(Cl)ccc1NC(=O)c1cc(-c2cccnc2)n[nH]1`, the IC50 was > 50 µM (inactive).
`CC(=O)c1ccc(NC(=O)CC2C(=O)Nc3nc4ccccc4n32)cc1` (configuration not stated): the 50% inhibitory concentration (IC50) is 46.2 µM.
Take `Cc1cc(C(=O)N2CC(C(=O)Nc3cc(C(F)(F)F)ccc3Cl)C2)no1`: the IC50 was 29.3 µM.
Then `Cc1ccc2[nH]c(=O)c(CN(CC3COCCO3)S(=O)(=O)c3ccc(F)cc3)cc2c1` (configuration not stated), with 8.96 µM; and `CC(=O)c1ccc(NC(=O)C[n+]2cc(-c3ccc(Cl)cc3)n3c2CCC3)cc1`, with > 50 µM (inactive); and `COc1cccc(NC(=O)CSc2nnc(-c3cc4cccc(OC)c4o3)n2C)c1`, with 5.18 µM.
Then `O=C(c1ccnn1-c1ccc2ccc(-c3ccncc3)cn12)N1CCCC1`, with > 50 µM (inactive); and `COc1ccc(C(=O)Nc2ccc3c(c2)Sc2ncccc2C(=O)N3C)cn1`, with > 50 µM (inactive); and `O=C(Cn1c(=O)n(Cc2ccc3c(c2)OCO3)c(=O)c2ncccc21)c1ccc(Cl)cc1`, with 32.1 µM.
Then `CC(C)=CCC/C(C)=C/C[C@]1(O)C(=O)c2cc(O)cc(O)c2C(=O)[C@@]1(Cl)CC=C(C)C`, with > 50 µM (inactive); and `O=C(NCC(c1cccnc1)N1CCc2ccccc2C1)C(=O)Nc1ccc2c(c1)OCO2` (configuration not stated), with 33.3 µM.
For `CCN(CC(=O)Nc1cc(C)on1)c1cccc2ccccc12`, the IC50 is > 50 µM (inactive).
For the molecule `COc1ccc(CNC(=O)CCc2nc3sc4c(c3c(=O)[nH]2)CCCCC4)cc1`, the IC50 is > 50 µM (inactive).
Then `COc1ccc(NC(=O)Cn2cc(C(=O)c3ccc(C)cc3)c(=O)c3ccccc32)cc1`, with 2.32 µM; and `Cc1ccc2c(=O)c(C(=O)Nc3ccccc3)cn(CC(=O)NC3CCCCC3)c2n1`, with < 0.05 µM; and `CC(C)(C)C(=O)Nc1ccc(C(=O)Nc2cccc(-c3nnc(-c4ccccc4)o3)c2)cc1`, with 2.28 µM.
Then `FC(F)(F)c1ccccc1CCN1CCc2nc3ncc(Cl)cc3cc2C1`, with > 50 µM (inactive); and `O=S(=O)(Cc1nnc(-c2ccccc2C(F)(F)F)o1)c1ccc(Cl)cc1`, with > 50 µM (inactive); and `O=C(NC1CCCCC1)c1cc2c(cn1)[nH]c1ccccc12`, with > 50 µM (inactive).
